The values that follow come from patent US20120309734A1, “COMBRETASTATIN DERIVATIVES AND USES THEREFOR” (priority 2009, published 2012).

As a reminder, the GI50 is the concentration at which growth is held to half of that of the control. The low end stands for more potent growth inhibition, the high end for less potent growth inhibition. Usually half-life stands for the time in which the quantity being followed falls by half.

Data set [1] relates to SN12C. Briefly: NCI60 cell line screen. The settings on record: Homo sapiens.
For data set [2], the system named is CCRF-CEM. Briefly: NCI60 cell line screen. As to conditions: Homo sapiens.
In data set [3] the test system is SK-MEL-5. Briefly: NCI60 cell line screen. The settings on record: Homo sapiens.
Data set [4] deals with SK-OV-3. Briefly: NCI60 cell line screen. The settings on record: Homo sapiens.
Data set [5] concerns UO-31. Briefly: NCI60 cell line screen. The settings on record: Homo sapiens.
The subject of data set [6] is primary endothelial cell (HUVEC). Briefly: Endothelial cell proliferation, AlamarBlue. Format: cell-based. The settings on record: Homo sapiens, 72 h, read-out: IC50, proliferation of HUVECs. As to the method:
A range of concentrations of cis β-lactam 4, were tested on primary endothelial cell (HUVEC) proliferation. HUVEC cells (20,000 cells/well) were seeded onto 96-well plates for 24 h and treated in triplicate with vehicle alone (1% (v/v) ethanol) or a range of concentrations of compound 4 for 72 h. The cells were then incubated in 10% (v/v) AlamarBlue and its reduction to a fluorescent state measured at excitation 544 nm and emission 590 nm using a multi-well fluorimeter. The results were expressed as the percentage cell proliferation relative to vehicle-treated control cells (100%). Values represent the mean±the S.E.M for three separate experiments. IC50 values were obtained using Prism GraphPad 4.
Pooled primary human umbilical vein endothelial cells (HUVECs) and their associated reagents were all obtained from Cascade Biologics, Invitrogen, Carlsbad, Calif., USA. HUVECs were maintained between passages 1-4 in Medium 200 supplemented with LSGS (low serum growth factor supplement) and utilised for experiments at passage 4.
A general note: The colour change of resazurin is a common sign of viable cells or microbes.

Data set [7] has as its system EKVX. Briefly: NCI60 cell line screen. As to conditions: Homo sapiens.
Data set [8] relates to K-562. Briefly: NCI60 cell line screen. As to conditions: Homo sapiens, K562.
The test system of data set [9] is HL-60(TB). Briefly: NCI60 cell line screen. The settings on record: Homo sapiens.
For data set [10], the system named is microtubule network of endothelial cells (HUVECs). Briefly: Microtubule network immunofluorescence. Format: cell-based, human. The settings on record: 50 nM, 16 h. As to the method:
FIG. 9 illustrates the effect of compound 4 in destabilising the microtubule network of endothelial cells. HUVECs (0.6×10^5 cell/chamber), grown on 4-chamber glass slides for 24 h were treated with vehicle (0.5% (v/v) ethanol) or 50 nM compound 4 for 16 h. The cells were then fixed in 100% methanol at −20° C., incubated with a monoclonal anti-α-tubulin antibody (Merck Biosciences, Nottingham, UK), followed by a FITC-conjugated anti-mouse antibody (DakoCytomation, Glostrup, Denmark) and then briefly stained with propidium iodide. The chamber partitions were removed from the slides and anti-quenching solution (2 mg/ml p-phenylenediamine in 50:50 glycerol to PBS solution) was applied to the surface of each slide and coverslips mounted. The organisation of the microtubule network and the cellular DNA was visualised using an Olympus IX81 Fluorescent Microscope (Olympus Corporation, Tokyo, Japan) at a magnification of 600×. The photographs illustrated in FIG. 9 are representative of three independent experiments.

Data set [11] concerns primary CML cells (BCR-ABL-positive). Briefly: Apoptosis in ex vivo CML cells, annexin V staining. Format: cell-based, human. As to conditions: 72 h. The text has this:
This study is the first pre-clinical evaluation of combretastatins in the treatment of chemotherapy naive and patients with acquired imatinib mesylate resistance (refractory or relapsed disease despite adequate dose and duration). Imatinib mesylate is the first line treatment in BCR-ABL-positive CML chemotherapy. BCR-ABL, a constitutively active protein tyrosine kinase is a product of the Philadelphia chromosome (Ph) translocation t(9;22) and plays a central role in the pathogenesis of CML. […] All cells were treated with a clinically achievable concentration of imatinib mesylate (indicated as STI in FIG. 3) [250 nM]. […] The percentage apoptosis was determined by flow cytometric analysis of annexin-V stained cells.
The percentage of apoptosis in ex-vivo CML cells was determined by annexin V staining. […] Cells were collected by centrifugation at 400×g for 5 min and resuspended in anti-CD-45 diluted 1:50 in RPMI medium. Following a 10 min incubation in the dark at room temperature, cells were centrifuged and washed in Annexin binding buffer (Biosource, Nivelles, Belgium). Cells were again centrifuged and resuspended in Annexin-V-FITC (IQ products, Netherlands) diluted in Annexin binding buffer (1:50). Samples were next incubated in the dark on ice for 15 min. Annexin binding buffer (1 ml) was added to each sample. Samples were collected by centrifugation and resuspended in 0.5 ml of Annexin binding buffer. Cells were read immediately by flow cytometry and analysed by Cellquest software. CML cells were selected and gated based on their low to medium side scatter and low CD45 expression.

Data set [12] has as its system NCI-H552. Briefly: NCI60 cell line screen.
The subject of data set [13] is UACC-62. Briefly: NCI60 cell line screen. As to conditions: Homo sapiens.
Data set [14] has as its system PC-3. Briefly: NCI60 cell line screen. The settings on record: Homo sapiens.
Data set [15] relates to HCT-116. Briefly: NCI60 cell line screen. As to conditions: Homo sapiens.
Data set [16] concerns HL-60 parental. Briefly: Alamar Blue cell viability assay. Format: cell-based. The settings on record: Homo sapiens, 72 h.
Procedure: Cells were exposed to multiple concentrations of the indicated compound for 72 h. Cell viability was assessed using the Alamar blue assay and respective IC50 values were calculated. The resistance factor (RF) was calculated by dividing the IC50 of the resistant cell line/IC50 of the parental cell line.
A2780-parental and A2780-ADR resistant cells were provided by the Beatson Institute of Cancer Research, Glasgow. […] All cells were cultured in RPMI-1640 Glutamax medium supplemented with 10% FCS media, 100 units/ml penicillin and 100 μg/mIstreptomycin. Cells were maintained at 37° C. in 5% CO2 in a humidified incubator.
The reduction of Alamar Blue is proportional to the number of viable cells. Cells (200 μl) were plated in triplicate in a 96-well plates (K562, 100,000/ml; HL-60, 300,000/ml; A-2780 50,000/ml). A-2780 cells were plated 24 h prior to treatment. Suspension cells were plated in the log phase of growth and treated immediately. The cells were then treated with either medium alone, vehicle (1% ethanol v/v or 0.1% DMSO v/v) or with a range of concentrations of drug [0.001-10 μM]. After 72 h, Alamar Blue was added to each well (10% of final volume) and fluorescence was read using a 96-well fluorometer with excitation at 530 nm and emission of 590 nm. The blank solution consisted of medium and Alamar Blue and the blank solution was used to calibrate the spectrophotometer to zero absorbance. The relative cell viability (%) related to control wells and was calculated by [A]test/[A]control×100 where [A]test is the absorbance of the drug treated cells and [A]control the absorbance of the vehicle control treated cells. Dose response curves were plotted and IC50 values (concentration of drug resulting in 50% reduction in cell survival) were obtained using the commercial software package Prism (GraphPad Software, Inc., La Jolla, USA). Experiments were performed in triplicate on at least three separate occasions.
The subject of data set [17] is MCF-7. Briefly: NCI60 cell line screen. The settings on record: Homo sapiens, MCF7.
In data set [18] the test system is CAKI-1. Briefly: NCI60 cell line screen. The settings on record: Homo sapiens.
Data set [19] has as its system SF-539. Briefly: NCI60 cell line screen. The settings on record: Homo sapiens.
The test system of data set [20] is MDA-MB-468. Briefly: NCI60 cell line screen. The settings on record: Homo sapiens.
In data set [21] the test system is HOP-62. Briefly: NCI60 cell line screen. The settings on record: Homo sapiens.
Data set [22] in a line: Stability by HPLC at three pH values. Format: physicochemical. As to conditions: for half-life: all pH values (4, 7.4, 9), HPLC; for stability at varying pH: pH 4, 7.4, 9, HPLC. As to the method:
The stability of β-lactam compounds 4, 8 and 12 was assessed by HPLC at three different pH values. […] The half-lives of 8 and 12 were both greater than 24 hours at all pH values. The stability of three ester prodrug derivatives of 4, i.e. 29, 30 and 31, was also assessed (FIG. 6).

Regarding `COc1ccc(C2C(c3ccccc3)C(=O)N2c2cc(OC)c(OC)c(OC)c2)cc1O` (stereo not drawn) [Compound 4, 4-(3-Hydroxy-4-methoxyphenyl)-3-phenyl-1-(3,4,5-trimethoxyphenyl)-azetidin-2-one], the GI50 in data set [1] was less than 10 nM; in [2], less than 10 nM; in data set [3], less than 10 nM; in data set [4], 37 nM; in data set [5] it was 32 nM; in data set [7] it was less than 10 nM. The GI50 is less than 10 nM in data set [8]; less than 10 nM in [9]; 5150 nM in data set [12]; less than 10 nM in [13]; less than 10 nM in data set [14]; less than 10 nM in data set [15]. Also, the GI50 in data set [17], in data set [18], in data set [19] and in [20] was less than 10 nM in each case. The IC50 in [6] amounted to 4 nM; in [16], 17.7 nM. Also, in [10], the “effect on tubulin cytoskeleton” value was “gross morphological changes in their tubulin cytoskeleton typical of depolymerising agents”. Further, in [11] (250 nM each, patient samples), the “apoptosis induction compared with imatinib mesylate” value was “more effective inducers of apoptosis than imatinib mesylate”. The “apoptosis in primary CML cells” value in data set [11] (250 nM, chemotherapy naïve (4 samples) and imatinib mesylate resistant (2 samples)) was “induced apoptosis”.
As to `COc1ccc(C2C(c3cccs3)C(=O)N2c2cc(OC)c(OC)c(OC)c2)cc1` (stereo not drawn) [Compound 12, 4-(4-Methoxyphenyl)-3-thiophen-2-yl-1-(3,4,5-trimethoxyphenyl)-azetidin-2-one], the GI50 in [1] is less than 10 nM; in [2], less than 10 nM; in data set [3], 14 nM; in [4], 38 nM; in data set [5] it was 38 nM; in [7] it was 34 nM. The GI50 in data set [9] is less than 10 nM; in data set [12], less than 10 nM; in data set [13] it was less than 10 nM; in [21], 70 nM; in data set [14], less than 10 nM; in data set [15] it was less than 10 nM. Further, the GI50 in data set [17] is less than 10 nM; in data set [18], 16 nM; in data set [19], less than 10 nM; in data set [20], less than 10 nM. In [22], this compound returned a half-life of more than 24 h. Further, in [22], the “stability at varying pH” value is “least stable at acidic pH 4 and relatively stable at pH's 7.4 and 9”.
As to `COc1ccc(C2C(c3ccccc3)C(=O)N2c2cc(OC)c(OC)c(OC)c2)cc1` (stereo not drawn) [Compound 8, 4-(4-Methoxy-phenyl)-3-phenyl-1-(3,4,5-trimethoxy-phenyl)-azetidin-2-one], the GI50 in [1] is 312 nM; in [2] it was 37.2 nM; in [3], 124 nM; in [4], 412 nM; in data set [5], 396 nM; in [7], 352 nM. In addition, the GI50 in [8] amounted to 29.1 nM; in [9], 16.2 nM; in [12], 96.6 nM; in data set [13] it was 40.5 nM; in [21], 605 nM; in [15] it was 39.8 nM. The 50% growth inhibitory concentration (GI50) in data set [17] amounted to 35.1 nM; in data set [18], 84.8 nM; in data set [19] it was 33 nM; in [20] it was 68.4 nM. The compound also came in with a half-life in data set [22] of more than 24 h. Also, the “stability at varying pH” value in [22] was “least stable at acidic pH 4 and relatively stable at pH's 7.4 and 9”.
